Source: publication PMC7531004, “Discovery of gramicidin A analogues with altered activities by multidimensional screening of a one-bead-one-compound library” (Nature Communications, 2020)
Where a SMILES comes first, the peptide text is derived from it. [ ]: non-standard residue; d: D form. The star is where a group is joined. NHCH2CH2OH = OCCN*; For = O=C*

What was measured:
[1] = cell viability/%
Procedure, shortened: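 P388 cells at 1 × 10^4 cells/mL (final) were exposed to library peptides (stocks diluted 250-fold in RPMI1640/10% FBS) for 92 h at 37 °C, 5% CO2. Viable cells were counted by WST-1/1-methoxy PMS (4 h), absorbance 415 nm, and expressed as cell viability (%).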

[2] = test system: Streptococcus pyogenes SSI-9; assay: Antibacterial activity assay of bead-derived peptides (three concentrations); type: cell-based; parameters: key: +++: inhibition by the 640-fold diluted peptide solution; ++: inhibition by the 160-fold diluted solution; +: inhibition by the 40-fold diluted solution; -: no inhibition; conditions: S. pyogenes, bead-derived peptide solution, three concentrations
Procedure, shortened: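 Undiluted, 4-fold and 16-fold DMSO-diluted peptide stocks; S. pyogenes SSI-9, 2 × 10^5 CFU, cation-adjusted MHB (50 mg/L Ca2+, 25 mg/L Mg2+) + 5% laked horse blood; 37 °C, 18 h; readout = cell pellet visible or not.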

[3] = H+/Na+ transport assay of bead-derived peptides (one-point); type: biochemical; parameters: key: relative activity; mean of two control wells = 1.00; conditions: bead-derived peptide solution, EYPC/EYPG LUVs;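 also: relative to parent gramicidin A activity set to 1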
Procedure, shortened: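 One-point screen: peptide + pyranine-loaded LUVs, 30 min RT with vortexing, 96-well. Read-out is fluorescence intensity scaled as 100 × (Ix – I0)/(Imax – I0). Imax from Triton X-100, I0 from untreated vesicles, and the mean of the two control wells is set to 1.00.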

SMILES	viability [1]	antibacterial activity [2]	H+/Na+ transport activity normalized against the value of 1 (1.00) [3]
CNC(=O)C[C@@H](NC(=O)[C@@H](NC(=O)[C@@H](CC(C)C)NC(=O)[C@H](C)NC(=O)[C@H](NC(=O)[C@H](C)NC(=O)CNC(=O)[C@@H](NC=O)C(C)C)C(C)C)C(C)C)C(=O)N[C@@H](Cc1c[nH]c2ccccc12)C(=O)N[C@H](CC(C)C)C(=O)N[C@@H](Cc1c[nH]c2ccccc12)C(=O)N[C@@H](C(=O)N[C@@H](Cc1c[nH]c2ccccc12)C(=O)N[C@H](CC(C)C)C(=O)N[C@@H](Cc1c[nH]c2ccccc12)C(=O)NCCO)C(C)C [compound 6541] (For-VGA[dV]A[dL]V[dD](NHMe)W[dL]W[dV]W[dL]W-NHCH2CH2OH)	100%	-	1.14
CC(C)C[C@@H](NC(=O)[C@H](C)NC(=O)CNC(=O)[C@@H](NC=O)C(C)C)C(=O)N[C@@H](C)C(=O)N[C@H](CC(C)C)C(=O)N[C@H](C(=O)N[C@@H](C(=O)N[C@@H](Cc1c[nH]c2ccccc12)C(=O)N[C@@H](C(=O)N[C@@H](Cc1c[nH]c2ccccc12)C(=O)N[C@@H](C(=O)N[C@@H](Cc1c[nH]c2ccccc12)C(=O)N[C@H](CC(C)C)C(=O)N[C@@H](Cc1c[nH]c2ccccc12)C(=O)NCCO)C(C)C)[C@H](C)O)C(C)C)C(C)C [compound 2931] (For-VGA[dL]A[dL]V[dV]W[dT]W[dV]W[dL]W-NHCH2CH2OH)	100%	+	1.06
CC(C)C[C@@H](NC(=O)[C@H](C)NC(=O)CNC(=O)[C@@H](NC=O)C(C)C)C(=O)N[C@@H](C)C(=O)N[C@@H](C(=O)N[C@H](C(=O)N[C@@H](C(=O)N[C@@H](Cc1c[nH]c2ccccc12)C(=O)N[C@H](CC(C)C)C(=O)N[C@@H](Cc1c[nH]c2ccccc12)C(=O)N[C@@H](C(=O)N[C@@H](Cc1c[nH]c2ccccc12)C(=O)N[C@H](CC(C)C)C(=O)N[C@@H](Cc1c[nH]c2ccccc12)C(=O)NCCO)C(C)C)C(C)C)C(C)C)C(C)C [compound 3861] (For-VGA[dL]A[dV]V[dV]W[dL]W[dV]W[dL]W-NHCH2CH2OH)	0.1%	++	1.51
CC(C)C[C@@H](NC(=O)[C@H](Cc1c[nH]c2ccccc12)NC(=O)[C@H](NC(=O)[C@H](Cc1c[nH]c2ccccc12)NC(=O)[C@@H](CC(C)C)NC(=O)[C@H](Cc1c[nH]c2ccccc12)NC(=O)[C@H](NC(=O)[C@@H](NC(=O)[C@H](NC(=O)[C@H](C)NC(=O)[C@H](NC(=O)[C@H](C)NC(=O)CNC(=O)[C@@H](NC=O)C(C)C)C(C)C)[C@H](C)O)C(C)C)C(C)C)C(C)C)C(=O)N[C@@H](Cc1c[nH]c2ccccc12)C(=O)NCCO [compound 7912] (For-VGA[dV]A[dT]V[dV]W[dL]W[dV]W[dL]W-NHCH2CH2OH)	100%	-	1.12
CC(C)C[C@@H](NC(=O)[C@H](Cc1c[nH]c2ccccc12)NC(=O)[C@H](NC(=O)[C@H](Cc1c[nH]c2ccccc12)NC(=O)[C@@H](CC(C)C)NC(=O)[C@H](Cc1c[nH]c2ccccc12)NC(=O)[C@H](NC(=O)[C@@H](NC(=O)[C@H](NC(=O)[C@H](C)NC(=O)[C@H](NC(=O)[C@H](C)NC(=O)CNC(=O)[C@@H](NC=O)C(C)C)C(C)C)C(C)C)C(C)C)[C@H](C)O)C(C)C)C(=O)N[C@@H](Cc1c[nH]c2ccccc12)C(=O)NCCO [compound 2829] (For-VGA[dV]A[dV]V[dT]W[dL]W[dV]W[dL]W-NHCH2CH2OH)	100%	-	1.13
CNC(=O)C[C@@H](NC(=O)[C@@H](NC(=O)[C@H](NC(=O)[C@H](C)NC(=O)[C@H](NC(=O)[C@H](C)NC(=O)CNC(=O)[C@@H](NC=O)C(C)C)C(C)C)C(C)C)C(C)C)C(=O)N[C@@H](Cc1c[nH]c2ccccc12)C(=O)N[C@@H](C(=O)N[C@@H](Cc1c[nH]c2ccccc12)C(=O)N[C@H](CC(C)C)C(=O)N[C@@H](Cc1c[nH]c2ccccc12)C(=O)N[C@H](CC(C)C)C(=O)N[C@@H](Cc1c[nH]c2ccccc12)C(=O)NCCO)C(C)C [compound 903] (For-VGA[dV]A[dV]V[dD](NHMe)W[dV]W[dL]W[dL]W-NHCH2CH2OH)	89.7%	-	1.15
CNC(=O)C[C@@H](NC(=O)[C@@H](NC(=O)[C@H](NC(=O)[C@H](C)NC(=O)[C@@H](CC(C)C)NC(=O)[C@H](C)NC(=O)CNC(=O)[C@@H](NC=O)C(C)C)C(C)C)C(C)C)C(=O)N[C@@H](Cc1c[nH]c2ccccc12)C(=O)N[C@@H](C(=O)N[C@@H](Cc1c[nH]c2ccccc12)C(=O)N[C@@H](C(=O)N[C@@H](Cc1c[nH]c2ccccc12)C(=O)N[C@H](CC(C)C)C(=O)N[C@@H](Cc1c[nH]c2ccccc12)C(=O)NCCO)C(C)C)C(C)C [compound 3596] (For-VGA[dL]A[dV]V[dD](NHMe)W[dV]W[dV]W[dL]W-NHCH2CH2OH)	100%	-	1.06
CC(C)C[C@@H](NC(=O)[C@H](C)NC(=O)CNC(=O)[C@@H](NC=O)C(C)C)C(=O)N[C@@H](C)C(=O)N[C@H](CC(C)C)C(=O)N[C@H](C(=O)N[C@@H](C(=O)N[C@@H](Cc1c[nH]c2ccccc12)C(=O)N[C@H](CC(C)C)C(=O)N[C@@H](Cc1c[nH]c2ccccc12)C(=O)N[C@@H](C(=O)N[C@@H](Cc1c[nH]c2ccccc12)C(=O)N[C@@H](C(=O)N[C@@H](Cc1c[nH]c2ccccc12)C(=O)NCCO)C(C)C)[C@H](C)O)C(C)C)C(C)C [compound 65] (For-VGA[dL]A[dL]V[dV]W[dL]W[dT]W[dV]W-NHCH2CH2OH)	100%	+	1.08
CC(C)C[C@@H](NC(=O)[C@H](C)NC(=O)[C@H](NC(=O)[C@H](C)NC(=O)CNC(=O)[C@@H](NC=O)C(C)C)C(C)C)C(=O)N[C@H](C(=O)N[C@@H](C(=O)N[C@@H](Cc1c[nH]c2ccccc12)C(=O)N[C@@H](C(=O)N[C@@H](Cc1c[nH]c2ccccc12)C(=O)N[C@@H](C(=O)N[C@@H](Cc1c[nH]c2ccccc12)C(=O)N[C@@H](C(=O)N[C@@H](Cc1c[nH]c2ccccc12)C(=O)NCCO)C(C)C)C(C)C)C(C)C)C(C)C)C(C)C [compound 7690] (For-VGA[dV]A[dL]V[dV]W[dV]W[dV]W[dV]W-NHCH2CH2OH)	100%	-	1.03
CC(C)C[C@@H](NC(=O)[C@H](C)NC(=O)CNC(=O)[C@@H](NC=O)C(C)C)C(=O)N[C@@H](C)C(=O)N[C@@H](C(=O)N[C@H](C(=O)N[C@@H](C(=O)N[C@@H](Cc1c[nH]c2ccccc12)C(=O)N[C@@H](C(=O)N[C@@H](Cc1c[nH]c2ccccc12)C(=O)N[C@H](CC(C)C)C(=O)N[C@@H](Cc1c[nH]c2ccccc12)C(=O)N[C@H](CC(C)C)C(=O)N[C@@H](Cc1c[nH]c2ccccc12)C(=O)NCCO)C(C)C)C(C)C)C(C)C)[C@H](C)O [compound 8755] (For-VGA[dL]A[dT]V[dV]W[dV]W[dL]W[dL]W-NHCH2CH2OH)	67.3%	-	1.10
CNC(=O)C[C@@H](NC(=O)[C@@H](NC(=O)[C@H](NC(=O)[C@H](C)NC(=O)[C@@H](CC(C)C)NC(=O)[C@H](C)NC(=O)CNC(=O)[C@@H](NC=O)C(C)C)C(C)C)C(C)C)C(=O)N[C@@H](Cc1c[nH]c2ccccc12)C(=O)N[C@H](CC(C)C)C(=O)N[C@@H](Cc1c[nH]c2ccccc12)C(=O)N[C@H](CC(C)C)C(=O)N[C@@H](Cc1c[nH]c2ccccc12)C(=O)N[C@H](CC(C)C)C(=O)N[C@@H](Cc1c[nH]c2ccccc12)C(=O)NCCO [compound 4143] (For-VGA[dL]A[dV]V[dD](NHMe)W[dL]W[dL]W[dL]W-NHCH2CH2OH)	100%	-	1.22
CC(C)C[C@@H](NC(=O)[C@H](C)NC(=O)CNC(=O)[C@@H](NC=O)C(C)C)C(=O)N[C@@H](C)C(=O)N[C@H](CC(C)C)C(=O)N[C@H](C(=O)N[C@H](CC(C)C)C(=O)N[C@@H](Cc1c[nH]c2ccccc12)C(=O)N[C@H](CC(C)C)C(=O)N[C@@H](Cc1c[nH]c2ccccc12)C(=O)N[C@@H](C(=O)N[C@@H](Cc1c[nH]c2ccccc12)C(=O)N[C@@H](C(=O)N[C@@H](Cc1c[nH]c2ccccc12)C(=O)NCCO)[C@H](C)O)C(C)C)C(C)C [compound 7512] (For-VGA[dL]A[dL]V[dL]W[dL]W[dV]W[dT]W-NHCH2CH2OH)	100%	-	1.05
CNC(=O)C[C@@H](NC(=O)[C@H](Cc1c[nH]c2ccccc12)NC(=O)[C@@H](CC(C)C)NC(=O)[C@H](Cc1c[nH]c2ccccc12)NC(=O)[C@H](NC(=O)[C@H](Cc1c[nH]c2ccccc12)NC(=O)[C@H](NC(=O)[C@@H](NC(=O)[C@H](NC(=O)[C@H](C)NC(=O)[C@@H](CC(C)C)NC(=O)[C@H](C)NC(=O)CNC(=O)[C@@H](NC=O)C(C)C)C(C)C)C(C)C)C(C)C)C(C)C)C(=O)N[C@@H](Cc1c[nH]c2ccccc12)C(=O)NCCO [compound 4898] (For-VGA[dL]A[dV]V[dV]W[dV]W[dL]W[dD](NHMe)W-NHCH2CH2OH)	100%	-	1.21
